We go through 17 compounds from ChEMBL document CHEMBL4725397, “SAR study of bisamides as cyclophilin a inhibitors for the development of host-targeting therapy for hepatitis C virus infection” (Bioorg Med Chem, 2020).

The nature of data set [1]: Cytotoxicity against human Huh7.5 cells assessed as decrease in cell viability after 3 days by MTT assay. The format is cell-based. To be noted: time 3 day. (In general: Tetrazolium assays rely on reduction of a dye to a coloured formazan, in cell work by metabolically active cells.)
Data set [2] is described as follows: Selectivity index, ratio of CC50 for human Huh7.5 cells to EC50 for genotype 2a HCV JFH-1 infected in human Huh7.5 cells. It is filed as toxicity, cell-based.
Data set [3] can be described thus: Antiviral activity against HCV genotype 2a JFH-1 infected in human Huh7.5 cells after 3 days by renilla luciferase reporter gene assay. The format is functional, cell-based, Hepatitis C virus subtype 2a. To be noted: Hepatitis C virus, JFH-1, Huh7.5, 72 h.
The subject of the next data set is Hepatitis C virus. The data set is described as follows: Antiviral activity against 0.05 MOI HCV JFH-1 infected in human Huh7.5 assessed as suppression of viral replication after 4 days post-infection by western blot analysis. It is filed as functional, organism-based. To be noted: Hepacivirus hominis, time 4.0 day.
For data set [4], the target named is Peptidyl-prolyl cis-trans isomerase A (Homo sapiens, UniProt P62937). In words: Binding affinity to Cyclophilin A (unknown origin) by surface plasmon resonance analysis.
Chain of Peptidyl-prolyl cis-trans isomerase A (P62937 whole entry): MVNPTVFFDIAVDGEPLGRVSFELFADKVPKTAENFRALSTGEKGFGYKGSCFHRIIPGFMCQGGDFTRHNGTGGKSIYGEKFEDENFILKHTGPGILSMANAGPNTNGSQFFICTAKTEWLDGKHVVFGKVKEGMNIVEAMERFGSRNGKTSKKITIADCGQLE

Each structure is given as a SMILES string. Some results are limits rather than exact numbers.

For orientation: CC50 means the concentration that lowers cell viability or growth by half. The EC50 is the midpoint of the concentration-response curve. A low value points to an effect from little substance. For the compound `O=C(NC1CCCCC1)C(c1ccc([N+](=O)[O-])cc1)N(C(=O)Cc1c[nH]c2ccccc12)c1ccc(Br)cc1` (centres undefined), in data set [1], the CC50 at 72 h was determined as 13.8 µM. Also, the selectivity ratio in data set [2] is 2.2. This compound also had an EC50 in data set [3] of 6.3 µM.

`COc1ccc(CCC(=O)N(c2ccc(Br)cc2)C(C(=O)NC2CCCCC2)c2ccc([N+](=O)[O-])cc2)cc1` (centres undefined): the CC50 at 72 h in data set [1] was 9.8 µM. The compound further had an EC50 in data set [3] of 6.1 µM.

Take `COc1ccc(CCN(C(=O)c2cc3ccccc3[nH]2)C(C(=O)NC2CCCCC2)c2ccc([N+](=O)[O-])cc2)cc1OC` (centres undefined): the CC50 at 72 h in data set [1] was over 100 µM. For the same compound, the selectivity ratio in data set [2] was over 3.1. In addition, the EC50 in data set [3] amounted to 31.9 µM.

On to `NC(=O)c1ncn([C@@H]2O[C@H](CO)[C@@H](O)[C@H]2O)n1` [RIBAVIRIN], for which the CC50 at 72 h in data set [1] was over 100 µM. In data set [2], the selectivity ratio was over 6.1. In data set [3], this compound had an EC50 of 16.3 µM.

Regarding `COc1cccc(CCN(C(=O)c2cc3ccccc3[nH]2)C(C(=O)NC2CCCCC2)c2ccc([N+](=O)[O-])cc2)c1` (centres undefined), the CC50 at 72 h in data set [1] came out at 43.1 µM. Further, the selectivity ratio in data set [2] worked out at 1.9. Besides, it took 22.2 µM to reach a half-maximal effect in data set [3] (EC50).

Turning to `COc1ccc(N(C(=O)Cc2c[nH]c3ccccc23)C(C(=O)NC2CCCCC2)c2ccc([N+](=O)[O-])cc2)cc1OC` (centres undefined), the CC50 at 72 h in data set [1] is 57.6 µM. Moreover, in data set [2], the selectivity ratio was determined as 18. In data set [3], this compound yielded an EC50 of 3.2 µM.

For `COc1ccc(CCN(C(=O)Cc2c[nH]c3ccccc23)C(C(=O)NC2CCCCC2)c2ccc([N+](=O)[O-])cc2)cc1OC` (centres undefined), the Activity result in the data set with Hepatitis C virus was “Dose-dependent effect”. Besides, the CC50 at 72 h in data set [1] was over 100 µM. For the same compound, in data set [2], the selectivity ratio was over 23.8. Besides, the EC50 in data set [3] worked out at 4.2 µM.

Turning to `COc1cc(C(C(=O)NC2CCCCC2)N(C(=O)Cc2c[nH]c3ccccc23)c2ccc(C(C)C)cc2)cc(OC)c1OC` (centres undefined), the CC50 at 72 h in data set [1] was over 100 µM. It took 5.2 µM to reach a half-maximal effect in data set [3] (EC50).

Take `CC(C)(C)NC(=O)C(c1ccc([N+](=O)[O-])cc1)N(C(=O)Cc1c[nH]c2ccccc12)c1ccc(Br)cc1` (centres undefined): the CC50 at 72 h in data set [1] stood at 7 µM. Further, the EC50 in data set [3] was over 7 µM.

`COc1cccc(CCN(C(=O)Cc2c[nH]c3ccccc23)C(C(=O)NC2CCCCC2)c2ccc([N+](=O)[O-])cc2)c1` (centres undefined): the CC50 at 72 h in data set [1] is 27.6 µM. Moreover, the EC50 in data set [3] is over 27.6 µM.

As for `COc1ccc(CCN(C(=O)Cc2c[nH]c3ccccc23)C(C(=O)NC2CCCCC2)c2cc(OC)c(OC)c(OC)c2)cc1OC` (centres undefined), the CC50 at 72 h in data set [1] is over 100 µM. The EC50 in data set [3] is 5.3 µM.

In the case of `CCCCCNC(=O)C(c1ccc([N+](=O)[O-])cc1)N(C(=O)Cc1c[nH]c2ccccc12)c1ccc(Br)cc1` (centres undefined), in data set [1], the CC50 at 72 h stood at 7 µM. Further, in data set [3], the EC50 is over 7 µM.

As for `COc1ccc(CN(C(=O)Cc2c[nH]c3ccccc23)C(C(=O)NC2CCCCC2)c2ccc([N+](=O)[O-])cc2)cc1` (centres undefined), the CC50 at 72 h in data set [1] was 56.3 µM. Besides, the EC50 in data set [3] was over 56.3 µM.

Regarding `COc1ccc(N(C(=O)c2cc3ccccc3[nH]2)C(C(=O)NC2CCCCC2)c2ccc([N+](=O)[O-])cc2)cc1OC` (centres undefined), in the data set on Hepatitis C virus, the Activity entry was “Dose-dependent effect”. Also, in data set [1], the CC50 at 72 h was over 100 µM. The selectivity ratio in data set [2] is over 24.5. The compound also came in with an EC50 in data set [3] of 4.1 µM.

For orientation: Kd means the free concentration of one partner at which half of the binding sites on the other are occupied at equilibrium, for simple one-to-one binding. A higher Kd goes with lower affinity. For `CC(C)c1ccc(N(C(=O)Cc2c[nH]c3ccccc23)C(C(=O)NC2CCCCC2)c2ccc([N+](=O)[O-])cc2)cc1` (centres undefined), binding in data set [4] was put at a Kd of 4.6 µM.

As to `COc1ccc(N(C(=O)Cc2c[nH]c3ccccc23)C(C(=O)NC2CCCCC2)c2ccc([N+](=O)[O-])cc2)cc1` (centres undefined), in data set [1], the CC50 at 72 h turned out to be 8.5 µM. Moreover, the selectivity ratio in data set [2] stood at 3.4. This compound showed an EC50 in data set [3] of 2.5 µM.

Regarding `O=C(NC1CCCCC1)C(c1ccc([N+](=O)[O-])cc1)N(C(=O)Cc1c[nH]c2ccccc12)c1ccccc1` (centres undefined), the CC50 at 72 h in data set [1] was 11.9 µM. Further, the selectivity ratio in data set [2] stood at 2. Moreover, in data set [3], the EC50 stood at 6 µM.
